Measurements published in ChEMBL document CHEMBL1781922, “Synthesis, biological evaluation, and molecular docking study of 3-(3'-heteroatom substituted-2'-hydroxy-1'-propyloxy) xanthone analogues as novel topoisomerase IIα catalytic inhibitor” (Eur J Med Chem, 2011).
Where a name gives a salt, the structure may show the parent alone. Activity calls are given as the source filed them. No cut-off for these calls is given here.

Columns and labels:
[1] = system: HCT-116; assay: Cytotoxicity against human HCT116 cells after 2 days; assay type: functional, cell-based; details: HCT-116, 48 h
[2] = target: DNA topoisomerase 2-alpha (Homo sapiens) (UniProt P11388); assay: Inhibition of human topoisomerase 2alpha-mediated relaxation of supercoiled pBR322 DNA at 10 uM after 30 mins using ethidium bromide staining by transillumination analysis
Chain of DNA topoisomerase 2-alpha (Homo sapiens) (P11388 whole entry): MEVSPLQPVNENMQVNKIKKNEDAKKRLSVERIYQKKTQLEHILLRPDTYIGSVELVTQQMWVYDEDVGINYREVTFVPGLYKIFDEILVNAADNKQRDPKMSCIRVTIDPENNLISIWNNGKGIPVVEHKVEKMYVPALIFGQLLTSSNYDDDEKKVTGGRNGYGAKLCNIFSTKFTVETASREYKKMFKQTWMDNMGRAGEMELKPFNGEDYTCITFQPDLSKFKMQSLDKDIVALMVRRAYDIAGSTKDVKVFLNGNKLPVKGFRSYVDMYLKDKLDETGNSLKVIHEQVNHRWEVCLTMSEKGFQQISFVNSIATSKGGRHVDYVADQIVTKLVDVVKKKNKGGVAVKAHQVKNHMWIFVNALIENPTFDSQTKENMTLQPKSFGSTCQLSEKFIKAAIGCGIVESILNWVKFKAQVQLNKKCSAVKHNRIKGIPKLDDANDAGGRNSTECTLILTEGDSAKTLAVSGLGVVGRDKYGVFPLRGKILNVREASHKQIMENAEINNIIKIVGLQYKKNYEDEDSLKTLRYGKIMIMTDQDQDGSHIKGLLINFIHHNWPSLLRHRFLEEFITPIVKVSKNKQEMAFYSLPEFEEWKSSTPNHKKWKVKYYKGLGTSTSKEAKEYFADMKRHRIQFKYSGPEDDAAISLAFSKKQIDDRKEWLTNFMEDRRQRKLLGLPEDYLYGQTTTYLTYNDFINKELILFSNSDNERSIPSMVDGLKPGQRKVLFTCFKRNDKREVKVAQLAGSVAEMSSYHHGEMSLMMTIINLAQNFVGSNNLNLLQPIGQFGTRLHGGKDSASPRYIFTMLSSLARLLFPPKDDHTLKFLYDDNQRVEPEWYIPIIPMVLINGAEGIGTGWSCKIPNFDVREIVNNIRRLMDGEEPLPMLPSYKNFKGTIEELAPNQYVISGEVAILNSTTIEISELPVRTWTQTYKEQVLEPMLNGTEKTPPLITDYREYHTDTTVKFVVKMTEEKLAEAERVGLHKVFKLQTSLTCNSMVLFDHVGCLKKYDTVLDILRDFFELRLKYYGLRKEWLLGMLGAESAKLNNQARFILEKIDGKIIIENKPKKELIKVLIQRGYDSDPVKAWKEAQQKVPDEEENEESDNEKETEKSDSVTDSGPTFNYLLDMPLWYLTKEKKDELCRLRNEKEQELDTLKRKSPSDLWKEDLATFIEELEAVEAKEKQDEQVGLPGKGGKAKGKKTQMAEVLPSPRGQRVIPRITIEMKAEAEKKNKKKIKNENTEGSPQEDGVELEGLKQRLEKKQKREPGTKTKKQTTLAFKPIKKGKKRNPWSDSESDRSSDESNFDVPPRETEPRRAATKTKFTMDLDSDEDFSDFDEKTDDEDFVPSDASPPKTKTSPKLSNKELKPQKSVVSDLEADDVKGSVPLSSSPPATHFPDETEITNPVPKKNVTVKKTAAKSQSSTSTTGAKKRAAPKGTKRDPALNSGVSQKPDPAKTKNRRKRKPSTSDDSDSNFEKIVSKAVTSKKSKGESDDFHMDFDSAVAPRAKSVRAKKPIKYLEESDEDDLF

[3] = system: MDA-MB-231; assay: Cytotoxicity against human MDA-MB-231 cells after 2 days; details: MDA-MB-231, 48 h
[4] = target: DNA topoisomerase 2-alpha (Homo sapiens) (UniProt P11388); assay: Inhibition of human topoisomerase 2alpha-mediated relaxation of supercoiled pBR322 DNA at 100 uM after 30 mins using ethidium bromide staining by transillumination analysis
[5] = system: HL-60; assay: Cytotoxicity against human HL60 cells after 2 days; assay type: functional, cell-based; details: HL-60, 48 h
[6] = system: DU-145; assay: Cytotoxicity against human DU145 cells after 2 days; assay type: functional, cell-based; details: DU-145, 48 h
[7] = system: HeLa; assay: Cytotoxicity against human HeLa cells after 2 days; details: 48 h
[8] = target: DNA topoisomerase 2-alpha (Homo sapiens) (UniProt P11388); assay: Inhibition of human topoisomerase 2alpha-mediated relaxation of supercoiled pBR322 DNA at 20 uM after 30 mins using ethidium bromide staining by transillumination analysis
[9] = target: T1, DNA topoisomerase 1 (Homo sapiens) (UniProt P11387); assay: Inhibition of human recombinant topoisomerase 1-mediated relaxation of supercoiled pBR322 DNA at 20 uM after 30 mins using ethidium bromide staining by transillumination analysis
T1 sequence (whole entry): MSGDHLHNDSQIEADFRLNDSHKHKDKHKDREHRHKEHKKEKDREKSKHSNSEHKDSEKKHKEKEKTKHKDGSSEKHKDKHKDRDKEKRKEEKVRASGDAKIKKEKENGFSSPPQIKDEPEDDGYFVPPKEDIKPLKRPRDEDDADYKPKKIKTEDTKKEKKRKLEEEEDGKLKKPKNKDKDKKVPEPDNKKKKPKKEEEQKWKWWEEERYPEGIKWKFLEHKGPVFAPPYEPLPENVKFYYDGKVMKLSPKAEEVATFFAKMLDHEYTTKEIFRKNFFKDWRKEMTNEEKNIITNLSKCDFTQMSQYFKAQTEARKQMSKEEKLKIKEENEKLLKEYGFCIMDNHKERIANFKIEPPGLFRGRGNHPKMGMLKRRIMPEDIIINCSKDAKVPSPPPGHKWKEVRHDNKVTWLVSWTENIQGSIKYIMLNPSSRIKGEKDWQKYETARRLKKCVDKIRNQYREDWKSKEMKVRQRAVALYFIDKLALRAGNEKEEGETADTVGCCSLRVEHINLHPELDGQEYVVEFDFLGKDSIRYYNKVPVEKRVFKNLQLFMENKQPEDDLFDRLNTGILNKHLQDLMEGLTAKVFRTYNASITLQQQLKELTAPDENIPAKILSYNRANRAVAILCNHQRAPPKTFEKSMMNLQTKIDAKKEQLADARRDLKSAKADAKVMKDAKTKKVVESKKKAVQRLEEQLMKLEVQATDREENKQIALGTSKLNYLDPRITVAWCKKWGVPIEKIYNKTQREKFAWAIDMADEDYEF

[10] = target: DNA topoisomerase 2-alpha (Homo sapiens) (UniProt P11388); assay: Inhibition of human topoisomerase 2alpha-mediated ATP hydrolysis at 400 uM after 30 mins by malachite green ATPase assay
[11] = target: DNA topoisomerase 2-alpha (Homo sapiens) (UniProt P11388); assay: Inhibition of human topoisomerase 2alpha-mediated relaxation of pUC18 DNA at 400 uM after 30 mins by malachite green ATPase assay in presence of 1 to 4 mM of ATP

Structure (SMILES) | IC50 [1] | inhibition [2] | IC50 [3] | inhibition [4] | IC50 [5] | IC50 [6] | IC50 [7] | inhibition [8] | inhibition [9] | inhibition [10] | inhibition [11]
COc1cc([C@@H]2c3cc4c(cc3[C@@H](O[C@@H]3O[C@@H]5CO[C@@H](C)O[C@H]5[C@H](O)[C@H]3O)[C@H]3COC(=O)[C@H]23)OCO4)cc(OC)c1O [ETOPOSIDE] | 9.5 µM | 26% | 1.23 µM | 77.1% | 1.28 µM | 2.19 µM | 2.36 µM | – | – | – | –
COc1cccc2c1C(=O)c1c(O)c3c(c(O)c1C2=O)C[C@@](O)(C(=O)CO)C[C@@H]3O[C@H]1C[C@H](N)[C@H](O)[C@H](C)O1 [DOXORUBICIN HYDROCHLORIDE] | 6.81 µM | – | – | – | 0.32 µM | 2.47 µM | – | – | – | – | –
O=c1c2ccccc2oc2cc(OCC(O)CNCCCO)cc(O)c12 (centres undefined) | 31.3 µM | 38.7% | 6.97 µM | 100% | 8.87 µM | 1.6 µM | 19.2 µM | 62.8% | 3.45% | – | –
O=c1c2ccccc2oc2cc(OCC(O)CNCCO)cc(O)c12 (centres undefined) | 20 µM | 35.5% | 3.55 µM | 100% | 9.87 µM | 4.03 µM | 8.43 µM | 70.3% | 1.08% | – | –
O=c1c2ccccc2oc2cc(OCC(O)CN(CCO)CCO)cc(O)c12 (centres undefined) | 56.7 µM | 17.4% | 14.9 µM | 100% | 15.9 µM | 1.59 µM | 15.2 µM | 45.8% | 0% | – | –
O=c1c2ccccc2oc2cc(OCC(O)COCCO)cc(O)c12 (centres undefined) | 46.7 µM | 23.4% | 10.4 µM | 89.2% | 16.6 µM | 15.6 µM | 15.4 µM | 43.7% | 0% | – | –
O=c1c2ccccc2oc2cc(OCC(O)CSCCO)cc(O)c12 (centres undefined) | 23.9 µM | 26.3% | 5.13 µM | 63.8% | 19.9 µM | 3.47 µM | 9.15 µM | 49.1% | 0% | – | –
CO[C@@H]1[C@@H](OC(N)=O)[C@@H](O)[C@H](Oc2ccc3c(O)c(NC(=O)c4ccc(O)c(CC=C(C)C)c4)c(=O)oc3c2C)OC1(C)C | – | – | – | – | – | – | – | – | – | 60.4% | –
CCCNCC(O)COc1cc(O)c2c(=O)c3ccccc3oc2c1 (centres undefined) | 23.7 µM | 41.2% | 4.11 µM | 100% | 4.15 µM | 0.76 µM | 11.6 µM | 70% | 0% | 28.5% | inactive
O=c1c2ccccc2oc2cc(OCC(O)CSCCCO)cc(O)c12 (centres undefined) | > 100 µM | 17.5% | 8.4 µM | 68% | 27.8 µM | 40.9 µM | 12.3 µM | 26.1% | 0% | – | –
CC[C@@]1(O)C(=O)OCc2c1cc1n(c2=O)Cc2cc3ccccc3nc2-1 [CAMPTOTHECIN] | 3.97 µM | – | 0.97 µM | – | – | 0.31 µM | – | – | – | – | –
